Test results from US20240368078A1, “ARYL HETEROCYCLIC COMPOUNDS AS Kv1.3 POTASSIUM SHAKER CHANNEL BLOCKERS” (D.E. SHAW RESEARCH, LLC, priority 2021, published 2024).

Legend:
[1] = target: Kv1.3 potassium channel (Homo sapiens (Human), UniProt P22001); test: Kv1.3 potassium channel blocker activity, automated whole-cell patch clamp in CHO-K1 cells stably expressing Kv1.3; type: cell-based; conditions: Patchliner patch clamp
Protocol: Example 21. Evaluation of Kv1.3 Potassium Channel Blocker Activities
This assay is used to evaluate the disclosed compounds' activities as Kv1.3 potassium channel blockers.
CHO-K1 cells stably expressing Kv1.3 were grown in DMEM containing 10% heat-inactivated FBS, 1 mM sodium pyruvate, 2 mM L-glutamine, and G418 (500 μg/ml). Cells were grown in culture flasks at 37° C. in a 5% C02-humidified incubator.
(§1) The cells were bathed in an extracellular solution containing 140 mM NaCl, 4 mM KCl, 2 mM CaCl2), 1 mM MgCl2, 5 mM glucose, 10 mM HEPES; pH adjusted to 7.4 with NaOH; 295-305 mOsm. The internal solution contained 50 mM KCl, 10 mM NaCl, 60 mM KF, 20 mM EGTA, 10 mM HEPES; pH adjusted to 7.2 with KOH; 285 mOsm. All compounds were dissolved in DMSO at 30 mM. Compound stock solutions were freshly diluted with external solution to concentrations of 30 nM, 100 nM, 300 nM, 1 μM, 3 μM, 10 μM, 30 μM and 100 μM. The highest content of DMSO (0.3%) was present in 100 μM.
The currents were evoked by applying 100 ms depolarizing pulses from −90 mV (holding potential) to +40 mV were applied with 0.1 Hz frequency. Control (compound-free) and compound pulse trains for each compound concentration applied contained 20 pulses. 10-second breaks were used between pulse trains (see Table A below).
Whole-cell current recordings and compound application were enabled by means of an automated patch clamp platform Patchliner (Nanion Technologies GmbH). EPC 10 patch clamp amplifier (HEKA Elektronik Dr. Schulze GmbH) along with Patchmaster software (HEKA Elektronik Dr. Schulze GmbH) was used for data acquisition. Data were sampled at 10 kHz without filtering. Passive leak currents were subtracted online using a P/4 procedure (HEKA Elektronik Dr. Schulze GmbH). Increasing compound concentrations were applied consecutively to the same cell without washouts in between. Total compound incubation time before the next pulse train was not longer than 10 seconds. Peak current inhibition was observed during compound equilibration.
(§2) AUC and peak values were obtained with Patchmaster (HEKA Elektronik Dr. Schulze GmbH). To determine IC50, the last single pulse in the pulse train corresponding to a given compound concentration was used. Obtained AUC and peak values in the presence of compound were normalized to control values in the absence of compound. Using Origin (OridinLab), IC50 was derived from data fit to Hill equation: Icompound/Icontrol=(100-A)/(1+([compound]/IC50)nH)+A, where IC50 value is the concentration at which current inhibition is half-maximal, [compound] is the applied compound concentration, A is the fraction of current that is not blocked and nH is the Hill coefficient.

[2] = target: hERG channel (Homo sapiens (Human), UniProt Q12809); test: hERG electrophysiology, automated whole-cell patch clamp in CHO-K1 cells stably expressing hERG; type: cell-based; conditions: Patchliner patch clamp
Protocol: Example 22. Evaluation of hERG Activities
This assay is used to evaluate the disclosed compounds's inhibition activities against the hERG channel.
This assay is used to evaluate the disclosed compounds' inhibition activities against the hERG channel.
CHO-K1 cells stably expressing hERG were grown in Ham's F-12 Medium with glutamine containing 10% heat-inactivated FBS, 1% penicillin/streptomycin, hygromycin (100 μg/ml) and G418 (100 μg/ml). Cells were grown in culture flasks at 37° C. in a 5% CO2— humidified incubator.
as §1, with “Glucose,” for “glucose,”
The voltage protocol (see Table B) was designed to simulate voltage changes during a cardiac action potential with a 300 ms depolarization to +20 mV (analogous to the plateau phase of the cardiac action potential), a repolarization for 300 ms to −50 mV (inducing a tail current) and a final step to the holding potential of −80 mV. The pulse frequency was 0.3 Hz. Control (compound-free) and compound pulse trains for each compound concentration applied contained 70 pulses.
Whole-cell current recordings and compound application were enabled by means of an automated patch clamp platform Patchliner (Nanion). EPC 10 patch clamp amplifier (HEKA) along with Patchmaster software (HEKA Elektronik Dr. Schulze GmbH) was used for data acquisition. Data were sampled at 10 kHz without filtering. Increasing compound concentrations were applied consecutively to the same cell without washouts in between.
as §2, with “PEAK” for “peak”, “IC50” for “IC50,”, “Icompound/Icontrol=(100−A)/(1+([compound]/IC50)nH)+A,” for “Icompound/Icontrol=(100-A)/(1+([compound]/IC50)nH)+A,”, “IC50” for “IC50 value”

Sequence of hERG channel (Q12809 whole entry): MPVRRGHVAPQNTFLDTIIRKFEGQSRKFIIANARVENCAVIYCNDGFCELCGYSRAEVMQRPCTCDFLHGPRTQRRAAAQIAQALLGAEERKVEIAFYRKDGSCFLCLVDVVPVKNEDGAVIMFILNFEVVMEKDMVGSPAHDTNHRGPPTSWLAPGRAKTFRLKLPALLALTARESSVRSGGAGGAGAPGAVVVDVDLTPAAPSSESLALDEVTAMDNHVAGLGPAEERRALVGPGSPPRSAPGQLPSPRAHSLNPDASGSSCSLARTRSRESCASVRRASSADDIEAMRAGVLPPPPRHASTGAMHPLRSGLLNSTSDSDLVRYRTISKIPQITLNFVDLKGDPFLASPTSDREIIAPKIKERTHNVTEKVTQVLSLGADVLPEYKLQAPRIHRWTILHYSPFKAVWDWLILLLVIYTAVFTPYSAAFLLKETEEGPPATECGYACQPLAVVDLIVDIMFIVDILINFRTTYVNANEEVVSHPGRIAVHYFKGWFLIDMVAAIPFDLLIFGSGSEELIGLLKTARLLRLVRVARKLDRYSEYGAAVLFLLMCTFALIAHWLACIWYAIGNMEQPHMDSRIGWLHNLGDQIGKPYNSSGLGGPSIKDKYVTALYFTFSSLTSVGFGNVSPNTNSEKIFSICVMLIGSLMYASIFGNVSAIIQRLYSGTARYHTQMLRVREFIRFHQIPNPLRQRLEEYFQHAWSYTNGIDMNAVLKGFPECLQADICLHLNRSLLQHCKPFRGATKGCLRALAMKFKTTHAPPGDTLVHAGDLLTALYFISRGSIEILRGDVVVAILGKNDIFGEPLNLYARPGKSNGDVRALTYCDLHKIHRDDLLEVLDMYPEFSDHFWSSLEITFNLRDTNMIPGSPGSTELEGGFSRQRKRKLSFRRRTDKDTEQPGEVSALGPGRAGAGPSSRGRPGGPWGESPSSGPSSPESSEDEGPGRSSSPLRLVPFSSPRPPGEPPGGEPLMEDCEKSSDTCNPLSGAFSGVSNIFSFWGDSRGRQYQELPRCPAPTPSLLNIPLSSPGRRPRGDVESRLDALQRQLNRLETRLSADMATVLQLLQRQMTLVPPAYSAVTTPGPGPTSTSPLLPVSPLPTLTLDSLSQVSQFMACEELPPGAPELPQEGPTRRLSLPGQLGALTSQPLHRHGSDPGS
Sequence of Kv1.3 potassium channel (P22001 whole entry): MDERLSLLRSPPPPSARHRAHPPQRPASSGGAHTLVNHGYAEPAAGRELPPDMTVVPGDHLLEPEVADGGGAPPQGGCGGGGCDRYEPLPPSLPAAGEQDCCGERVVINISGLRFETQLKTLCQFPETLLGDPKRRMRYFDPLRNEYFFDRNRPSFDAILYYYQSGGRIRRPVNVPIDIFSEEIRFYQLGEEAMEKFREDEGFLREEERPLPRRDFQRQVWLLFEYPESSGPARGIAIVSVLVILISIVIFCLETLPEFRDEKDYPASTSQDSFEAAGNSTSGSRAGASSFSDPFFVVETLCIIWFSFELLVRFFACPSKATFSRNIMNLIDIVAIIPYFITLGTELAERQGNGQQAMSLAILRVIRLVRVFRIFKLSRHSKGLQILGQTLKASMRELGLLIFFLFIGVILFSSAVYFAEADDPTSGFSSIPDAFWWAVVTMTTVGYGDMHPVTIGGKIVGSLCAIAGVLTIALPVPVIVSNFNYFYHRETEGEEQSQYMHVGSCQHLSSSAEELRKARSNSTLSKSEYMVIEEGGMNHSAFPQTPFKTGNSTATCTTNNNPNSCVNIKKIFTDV

Row | SMILES | IC50 [1] [µM] | IC50 [2] [µM]
1 | NC(=O)C[C@@H]1CN[C@@H](c2c(O)ccc(Cl)c2Cl)C1 [Compound 32, 2-[(3R,5R)-5-(2,3-dichloro-6-hydroxyphenyl)pyrrolidin-3-yl]acetamide] | < 1 | –
2 | O=C(C[C@H]1CN[C@@H](c2c(O)ccc(Cl)c2Cl)C1)N1CCC[C@@H](O)C1 [Compound 58, 2-((3S,5R)-5-(2,3-dichloro-6-hydroxyphenyl)pyrrolidin-3-yl)-1-((R)-3-hydroxypipeiridn-1-yl)ethan-1-one] | < 1 | > 30
3 | O=C(C[C@H]1CN[C@@H](c2c(O)ccc(Cl)c2Cl)C1)N1CC(O)C1 [Compound 56, 2-((3S,5R)-5-(2,3-dichloro-6-hydroxyphenyl)pyrrolidin-3-yl)-1-(3-hydroxyazetidin-1-yl)ethan-1-one] | < 0.1 | > 100
4 | C[C@@H](C(N)=O)[C@H]1CN[C@@H](c2c(O)ccc(Cl)c2Cl)C1 (single isomer, unassigned) [Compound 44] | < 1 | > 100
5 | O=C(CO)NC[C@@H]1CN[C@@H](c2c(O)ccc(Cl)c2Cl)C1 [Compound 48, N-{[(3S,5R)-5-(2,3-dichloro-6-hydroxyphenyl)pyrrolidin-3-yl]methyl}-2-hydroxyacetamide] | < 1 | > 30
6 | CC[C@H](C(N)=O)[C@@H]1CN[C@@H](c2c(O)ccc(Cl)c2Cl)C1 (single isomer, unassigned) [Compound 72] | < 1 | –
7 | O=C(C[C@H]1CN[C@@H](c2c(O)ccc(Cl)c2Cl)C1)N1CC[C@H]1CO [Compound 68, 2-((3S,5R)-5-(2,3-dichloro-6-hydroxyphenyl)pyrrolidin-3-yl)-1-((S)-2-(hydroxymethyl)azetidin-1-yl)ethan-1-one] | < 1 | > 100
8 | O=C(C[C@H]1CN[C@@H](c2c(O)ccc(Cl)c2Cl)C1)N1CCC(O)CC1 [Compound 57, 2-((3S,5R)-5-(2,3-dichloro-6-hydroxyphenyl)pyrrolidin-3-yl)-1-(4-hydroxypiperidin-1-yl)ethan-1-one] | < 1 | –
9 | NC(=O)[C@@H](CO)[C@H]1CN[C@@H](c2c(O)ccc(Cl)c2Cl)C1 (single isomer, unassigned) [Compound 76] | < 1 | > 100
10 | NC(=O)C[C@@H]1CC[C@H](c2c(O)ccc(Cl)c2Cl)N1 [Compound 53, 2-((2S,5R)-5-(2,3-dichloro-6-hydroxyphenyl)pyrrolidin-2-yl)acetamide] | < 1 | > 100
11 | NC(=O)C[C@H]1CN[C@@H](c2c(O)ccc(Cl)c2Cl)C1 [Compound 31, 2-[(3S,5R)-5-(2,3-dichloro-6-hydroxyphenyl)pyrrolidin-3-yl]acetamide] | < 1 | > 100
12 | O=C(CC1CN[C@@H](c2c(O)ccc(Cl)c2Cl)C1)NCCO (stereo partly drawn) [Compound 34, 2-((5R)-5-(2,3-dichloro-6-hydroxyphenyl)pyrrolidin-3-yl)-N-(2-hydroxyethyl)acetamide] | < 0.1 | > 100
13 | C[C@H](C(N)=O)[C@H]1CN[C@@H](c2c(O)ccc(Cl)c2Cl)C1 (single isomer, unassigned) [Compound 45] | < 0.1 | > 100
14 | CC[C@@H](C(N)=O)[C@H]1CN[C@@H](c2c(O)ccc(Cl)c2Cl)C1 (single isomer, unassigned) [Compound 46] | < 1 | > 100
15 | CN(C)C(=O)C[C@H]1CN[C@@H](c2c(O)ccc(Cl)c2Cl)C1 [Compound 41, 2-((3S,5R)-5-(2,3-dichloro-6-hydroxyphenyl)pyrrolidin-3-yl)-N,N-dimethyalcetamide] | < 1 | > 30
16 | O=C(C[C@H]1CN[C@@H](c2c(O)ccc(Cl)c2Cl)C1)N1CCC[C@H](O)C1 [Compound 59, 2-((3S,5R)-5-(2,3-dichloro-6-hydroxyphenyl)pyrrolidin-3-yl)-1-((S)-3-hydroxypiperidin-1-yl)ethan-1-one] | < 1 | –
17 | O=C(CC1CN[C@@H](c2c(O)ccc(Cl)c2Cl)C1)N1CC(O)(CO)C1 (stereo partly drawn) [Compound 33, 2-((5R)-5-(2,3-dichloro-6-hydroxyphenyl)pyrrolidin-3-yl)-1-(3-hydroxy-3-(hydroxymethyl)azetidin-1-yl)ethan-1-one] | < 0.1 | > 100
18 | CC1(CO)CN(C(=O)C[C@H]2CN[C@@H](c3c(O)ccc(Cl)c3Cl)C2)C1 [Compound 69, 2-((3S,5R)-5-(2,3-dichloro-6-hydroxyphenyl)pyrrolidin-3-yl)-1-(3-(hydroxymethyl)-3-methylazetidin-1-yl)ethan-1-one] | < 1 | –
19 | NC(=O)[C@H](C1CC1)[C@H]1CN[C@@H](c2c(O)ccc(Cl)c2Cl)C1 (single isomer, unassigned) [Compound 78] | < 0.1 | –
20 | CC(C)(C(N)=O)[C@@H]1CN[C@@H](c2c(O)ccc(Cl)c2Cl)C1 [Compound 51, 2-[(3R,5R)-5-(2,3-dichloro-6-hydroxyphenyl)pyrrolidin-3-yl]-2-methylpropanamide] | < 1 | –
21 | C[C@@]1(CC(N)=O)CN[C@@H](c2c(O)ccc(Cl)c2Cl)C1 [Compound 50, 2-[5R-(2,3-dichloro-6-hydroxyphenyl)-3-methylpyrrolidin-3-yl]acetamide] | < 1 | –
22 | C[C@@H](CO)NC(=O)C[C@H]1CN[C@@H](c2c(O)ccc(Cl)c2Cl)C1 [Compound 62, 2-((3S,5R)-5-(2,3-dichloro-6-hydroxyphenyl)pyrrolidin-3-yl)-N-((S)-1-hydroxypropan-2-yl)acetamide] | < 1 | –
23 | NC(=O)[C@@H](C1CC1)[C@H]1CN[C@@H](c2c(O)ccc(Cl)c2Cl)C1 (single isomer, unassigned) [Compound 79] | < 1 | –
24 | O=C(C[C@H]1CN[C@@H](c2c(O)ccc(Cl)c2Cl)C1)N1CC(CO)(CO)C1 [Compound 70, 1-(3,3-bis(hydroxymethyl)azetidin-1-yl)-2-((3S,5R)-5-(2,3-dichloro-6-hydroxyphenyl)pyrrolidin-3-yl)ethan-1-one] | < 1 | –
25 | O=C(C[C@H]1CN[C@@H](c2c(O)ccc(Cl)c2Cl)C1)N1CC(CO)C1 [Compound 60, 2-((3S,5R)-5-(2,3-dichloro-6-hydroxyphenyl)pyrrolidin-3-yl)-1-(3-(hydroxymethyl)azetidin-1-yl)ethan-1-one] | < 1 | –
26 | CC[C@@H](C(N)=O)[C@@H]1CN[C@@H](c2c(O)ccc(Cl)c2Cl)C1 (single isomer, unassigned) [Compound 73] | < 1 | –
